# Reference: patent US11136409B2, “Compositions and methods for identification, assessment, prevention, and treatment of AML using USP10 biomarkers and modulators” (Dana-Farber Cancer Institute, Inc., priority 2016, dated 2021)
# Where two headings read alike, the source gives them in different places.
# Key:
# [1] = test system: Ba/F3-FLT3-ITD cells; test: Immunoblot of FLT3 / Beclin-1 in Ba/F3-FLT3-ITD cells; assay type: cell-based, murine; settings: immunoblot; Ba/F3-FLT3-ITD cells
# Text: The following antibodies were purchased from Cell Signaling Technology (Danvers, Mass.): total AKT (rabbit, #9272) and total p44/42 MAPK (Erk1/2) (3A7) (mouse, #9107) were used at 1:1000 dilution. Anti-GAPDH (D16H-11) XP (R) (rabbit mAb, #5174) was used at 1:1000 dilution. Beclin-1 (rabbit, #3738) was used at 1:1000. USP10 (D7A5) (rabbit, #8501) was used at 1:1000 dilution. P53 (rabbit, #9282) was used at 1:1000 dilution. β-tubulin (rabbit, #2146s) was used 1:1000.
# FLT3/Flk-2 (C-20) (sc-479) and Ub (P4D1) (mouse, sc-8017) were purchased from Santa Cruz Biotechnology, Inc. (Dallas, Tex.) and used at 1:1000 dilution for immunoblotting. Anti-pTyr (mouse, clone 4G10) was purchased from Upstate Biotechnology (Lake Placid, N.Y.) and was used at 1:1000 dilution. Anti-HAUSP/USP7 antibody (rabbit, ab4080) and anti-ubiquitin antibody (rabbit, ab7780) were purchased from Abcam (Cambridge, Mass.) and used at 1:1000 dilution.
# Protein lysate preparation, immunoblotting, and immunoprecipitation were carried out as previously described in Weisberg et al. (2002) Cancer Cell 1:433-443.
# [2] = target: USP7 (Homo sapiens, UniProt Q93009); test: USP7 IC50 of HBX19818 analogs (Table 9); assay type: biochemical; settings: read-out: USP7 IC50 +/− SEM
# [3] = target: T1, human USP10 (residues 376-798) (Homo sapiens, UniProt Q14694); test: In vitro USP10 activity assay (Ubiquitin-AMC); assay type: biochemical; settings: ubiquitin-AMC as substrate; purified enzyme; read-out: USP10 biochemical IC50
# T1 construct: A construct of human USP10 covering residues 376-798 in the pET28a vector; His-tag (cleaved yes); made in house; host or cells: E. coli BL21 (DE3)
# Procedure: Protein expression and purification. A construct of human USP10 covering residues 376-798 in the pET28a vector was over-expressed in E. coli BL21 (DE3) in TB medium in the presence of […] of kanamycin. Cells were grown at 37° C. to an OD of 0.8, cooled to 17° C., induced with 500 μM isopropyl-1-thio-D-galactopyranoside, incubated overnight at 17° C., collected by centrifugation, and stored at −80° C. Cell pellets were sonicated in buffer A (50 mM HEPES (pH 7.5), 300 mM NaCl, 10% glycerol, 10 mM Imidazole, and 3 mM BME) and the resulting lysate was centrifuged at 30,000×g for 30 min. Ni-NTA beads (Qiagen) were mixed with lysate supernatant for 30 min and washed with buffer A. Beads were transferred to an FPLC-compatible column and the bound protein was washed with 15% buffer B (50 mM HEPES (pH 7.5), 300 mM NaCl, 10% glycerol, 300 mM Imidazole, and 3 mM BME) and eluted with 100% buffer B. Thrombin was added to the eluted protein and incubated at 4° C. overnight. The sample was then passed through a HiPrep 26/10 desalting column (GE Healthcare) pre-equilibrated with buffer A without imidazole, and the eluted protein was subjected to a second Ni-NTA step to remove His-tag and Thrombin. The eluent was concentrated and passed through a Superdex® 200 10/300GL column (GE Healthcare) in a buffer containing 20 mM HEPES (pH 7.5), 150 mM NaCl, and 1 mM DTT. Fractions were pooled, concentrated to 20 mg/ml, and frozen at −80° C.
# In vitro USP10 activity assay. Recombinant USP10, residues 376-798, was tested for its activity in a Ubiquitin-AMC assay in presence or absence of inhibitors. For this assay, 10 nM USP10 were pre-incubated with different concentrations of inhibitors or DMSO as a control in 50 mM HEPES pH7.6, 0.5 mM EDTA, 11 uM ovalbumin, and 5 mM DTT. The reaction was incubated for 6 hours at room temperature prior to the addition of 2 uM Ubiquitin-AMC (Boston Biochem) substrate. The initial rate of the reaction was measured by collecting fluorescence data at one minute intervals over 30-minute period using a CLARIOstar® fluorescence plate reader at excitation and emission wavelength of 345 and 445 nm, respectively. The calculated initial rate values were plotted against inhibitor concentrations to determine IC50 values.
# [4] = test system: AML primagraft (D835Y+, FLT3-ITD+) cells; test: Treatment of mutant FLT3-expressing AML primagraft cells ex vivo; assay type: cell-based, human; settings: read-out: IC50 (+/−S.D.) AML primagraft (D835Y+, FLT3-ITD+)
# Procedure: All animal studies were performed according to protocols approved by the Dana-Farber Cancer Institute's Institutional Animal Care and Use Committee. […] Mice were sacrificed on day 21 of treatment. Bone marrow was flushed from mouse femurs, and spleens and livers were dissected and preserved first in formalin, followed 24 hours later by preservation in 70% ethanol. […] All AML primagraft samples used in the studies described herein were obtained through the Public Repository of Xenografts (proxe.org).
# (§1) The CellTiter-Glo® assay (Promega, Madison, Wis.) was used for proliferation studies and carried out according to manufacturer instructions. Cell viability is reported as percentage of control (untreated) cells, and error bars represent the standard error of the mean for each data point.
# [5] = test system: HEL; test: Anti-proliferation, 24 hr treatment (CellTiter-Glo); assay type: cell-based, human; settings: 24 hr treatment; HEL (FLT3 wt or null); read-out: Anti-proliferation IC50
# Text: (§2) Nomo-1, P31-FUJ, and NB4 were obtained from Dr. Gary Gilliland. MV4, 11 cells were obtained from Dr. Anthony Letai. Hel, K562, THP, U937, TF-1 and K052 cells were purchased from the American Type Culture Collection (ATCC) (Manassas, Va., USA). […] Cell lines were submitted for cell line authentication and were authenticated within 6 months of manuscript preparation through cell line short tandem repeat (STR) profiling (DDC Medical, Fairfield, Ohio and Molecular Diagnostics Laboratory, Dana Farber Cancer Institute). […] PBMCs were generously provided by Dr. Steven Treon and Dr. Guang Yang.
# as §1
# [6] = test system: OCI-AML5; test: as above; assay type: cell-based, human; settings: 24 hr treatment; OCI-AML5 (FLT3 wt or null); read-out: Anti-proliferation IC50
# Text: as §2, §1
# [7] = test system: MOLM14; test: as above; assay type: cell-based, human; settings: 24 hr treatment; MOLM14 (FLT3-ITD); read-out: Anti-proliferation IC50
# Text: as §2, §1
# [8] = test system: MOLM13-luc+; test: as above; assay type: cell-based, human; settings: 24 hr treatment; MOLM13-luc+ (FLT3-ITD); read-out: Anti-proliferation IC50
# Text: as §2, §1
# [9] = test system: NOMO-1; test: as above; assay type: cell-based, human; settings: 24 hr treatment; NOMO-1 (FLT3 wt or null); read-out: Anti-proliferation IC50
# Text: as §2, §1
# [10] = test system: P31; test: as above; assay type: cell-based, human; settings: 24 hr treatment; P31 (FLT3 wt or null); read-out: Anti-proliferation IC50
# Text: as §2, §1
# [11] = test system: U937; test: as above; assay type: cell-based, human; settings: 24 hr treatment; U937 (FLT3 wt or null); read-out: Anti-proliferation IC50
# Text: as §2, §1
# [12] = test system: NB4-luc+; test: as above; assay type: cell-based, human; settings: 24 hr treatment; NB4-luc+ (FLT3 wt or null); read-out: Anti-proliferation IC50
# Text: as §2, §1
# [13] = test system: K562; test: as above; assay type: cell-based, human; settings: 24 hr treatment; K562 (FLT3 wt or null); read-out: Anti-proliferation IC50
# Text: as §2, §1
# [14] = test system: TF-1; test: as above; assay type: cell-based, human; settings: 24 hr treatment; TF-1 (FLT3 null); read-out: Anti-proliferation IC50
# Text: as §2, §1
# [15] = test system: MV4,11; test: as above; assay type: cell-based, human; settings: 24 hr treatment; MV4,11 (FLT3-ITD); read-out: Anti-proliferation IC50
# Text: as §2, §1
# [16] = test system: K052; test: as above; assay type: cell-based, human; settings: 24 hr treatment; K052 (FLT3 wt or null); read-out: Anti-proliferation IC50
# Text: as §2, §1
# [17] = test system: mutant FLT3-expressing cells; test: Dynamic BH3 profiling (mitochondrial priming); assay type: cell-based, human; settings: cytochrome c release in response to Bim peptide, 14 h; compared to wt or null FLT3-expressing cells
# Procedure: To determine drug-induced changes in mitochondrial priming, dynamic BH3 profiling was performed as previously described in Montero et al. (2015) Cell 160:977-989 and Pan et al. (2014) Cancer Discov. 4:362-375. Briefly, 0.4×10^6 cells/well were exposed to drug treatment for 14 hours. At the end of incubation time, cells were washed in PBS, pelleted at 500×g for 5 min, and resuspended in MEB buffer. Fifteen μl of cell suspension was added to each well of 384 well plate containing 15 μl of MEB buffer containing 20 μg/mL digitonin and BH3 peptides at twice their final concentration, and the mixture was incubated for 60 min at 26° C. to allow mitochondrial depolarization. Peptide exposure was then terminated by adding 10 μl 4% formaldehyde in PBS for 15 min, followed by neutralization with N2 buffer (1.7M Tris, 1.25M glycine, pH 9.1) for 10 min. In order to determine cytochrome C levels, anti-cytochrome C clone 6H2.B4 conjugated to Alexa Fluor® 647 (BD Bioscience) was diluted 1:50 in 10× staining buffer (10% BSA, 2% Tween-20 and 0.02% sodium azide in PBS) and 10 μl of this antibody-containing buffer was added to each well for a final dilution of 1:400. Cells were stained overnight at 4° C. in dark and data were acquired on a BD LSRFortessa™ analyzer (BD Biosciences). Priming change (Δ) was calculated by comparing cytochrome C abundance in treated cells to that of DMSO-treated control cells.
# [18] = test system: PBMCs; test: Treatment of PBMCs from healthy donors with USP10-targeting inhibitors; assay type: cell-based, human
# Text: as §2, §1
# Sequence of USP7 (Q93009 whole entry, the tested form may be a part): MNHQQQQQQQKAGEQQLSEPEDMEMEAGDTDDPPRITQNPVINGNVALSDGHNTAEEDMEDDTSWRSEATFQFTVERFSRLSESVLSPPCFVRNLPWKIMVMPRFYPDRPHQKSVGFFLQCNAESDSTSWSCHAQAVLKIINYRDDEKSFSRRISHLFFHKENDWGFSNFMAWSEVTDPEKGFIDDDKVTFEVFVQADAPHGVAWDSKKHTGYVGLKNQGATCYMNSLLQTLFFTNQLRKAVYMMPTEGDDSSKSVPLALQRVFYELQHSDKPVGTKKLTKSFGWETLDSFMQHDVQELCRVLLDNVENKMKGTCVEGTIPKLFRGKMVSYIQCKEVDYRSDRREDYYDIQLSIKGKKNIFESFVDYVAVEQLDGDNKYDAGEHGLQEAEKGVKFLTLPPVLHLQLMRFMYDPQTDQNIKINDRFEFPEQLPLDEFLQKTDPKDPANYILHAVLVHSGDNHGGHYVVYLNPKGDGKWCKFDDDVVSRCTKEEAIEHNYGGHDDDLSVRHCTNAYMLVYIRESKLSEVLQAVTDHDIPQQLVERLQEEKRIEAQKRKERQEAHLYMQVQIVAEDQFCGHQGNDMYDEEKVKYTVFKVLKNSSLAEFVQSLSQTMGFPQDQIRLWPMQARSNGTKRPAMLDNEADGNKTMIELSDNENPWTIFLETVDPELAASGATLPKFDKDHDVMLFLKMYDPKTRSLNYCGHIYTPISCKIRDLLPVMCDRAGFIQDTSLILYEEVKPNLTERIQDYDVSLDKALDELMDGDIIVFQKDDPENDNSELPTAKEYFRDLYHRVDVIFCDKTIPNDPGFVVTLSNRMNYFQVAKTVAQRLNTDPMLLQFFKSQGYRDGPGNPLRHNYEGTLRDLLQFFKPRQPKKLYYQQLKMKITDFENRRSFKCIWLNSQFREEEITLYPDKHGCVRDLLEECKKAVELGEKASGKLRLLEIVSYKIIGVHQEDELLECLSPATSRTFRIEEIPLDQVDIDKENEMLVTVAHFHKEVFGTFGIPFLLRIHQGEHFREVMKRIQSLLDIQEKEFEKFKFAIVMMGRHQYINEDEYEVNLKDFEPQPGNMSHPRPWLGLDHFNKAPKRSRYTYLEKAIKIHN
# T1 sequence (Q14694 376-798): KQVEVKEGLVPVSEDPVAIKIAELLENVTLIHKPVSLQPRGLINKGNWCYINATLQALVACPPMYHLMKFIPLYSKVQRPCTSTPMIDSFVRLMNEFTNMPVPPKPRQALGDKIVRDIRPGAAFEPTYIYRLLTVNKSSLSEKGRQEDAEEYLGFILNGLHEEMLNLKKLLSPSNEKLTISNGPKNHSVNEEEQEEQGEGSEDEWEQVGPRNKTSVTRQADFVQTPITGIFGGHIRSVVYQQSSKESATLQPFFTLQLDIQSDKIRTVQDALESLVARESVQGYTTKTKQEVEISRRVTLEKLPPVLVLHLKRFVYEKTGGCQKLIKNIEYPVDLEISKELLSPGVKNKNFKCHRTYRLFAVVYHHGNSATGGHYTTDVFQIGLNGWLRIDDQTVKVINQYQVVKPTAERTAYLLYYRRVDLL
structure (smiles),measurement,setting,value
CCN(CCCNC(=O)c1ccc2nc3c(c(Cl)c2c1)CCCC3)c1ccccc1 [C598-0468],FLT3 protein levels,[1],no effect on FLT3 levels
same,IC50,[2],> 100 µM
same,IC50,[3],> 100 µM
O=C(NCCc1ccc(Cl)cc1)c1ccc2nc3c(c(Cl)c2c1)CCCC3 [C598-0515],IC50,[2],> 100 µM
O=C(NCCN1CCN(Cc2ccccc2)CC1)c1ccc2nc3c(c(Cl)c2c1)CCCC3 [C598-0571],IC50,[4]; 24 hr assay,10.3 µM
same,IC50,[4]; 72 hr assay,1.4 µM
same,IC50,[5],40.7 µM
same,IC50,[6],37.7 µM
same,IC50,[7],18.6 µM
same,IC50,[8],12.6 µM
same,IC50,[9],20.9 µM
same,IC50,[10],30 µM
same,IC50,[11],21.9 µM
same,IC50,[12],29 µM
same,IC50,[13],35.9 µM
same,IC50,[14],18.4 µM
same,IC50,[15],9.2 µM
same,IC50,[16],35.1 µM
same,IC50,[2],22 µM
same,Mitochondrial priming for apoptosis,[17],more strongly
same,IC50,"[18]; 24 hr assay, PBMC#1, read-out: IC50 (+/−S.D.) PBMC#1",32.3 µM
same,IC50,"[18]; 24 hr assay, PBMC#2, read-out: IC50 (+/−S.D.) PBMC#2",31.3 µM
same,IC50,"[18]; 72 hr assay, PBMC#1, read-out: IC50 (+/−S.D.) PBMC#1",16.6 µM
same,IC50,"[18]; 72 hr assay, PBMC#2, read-out: IC50 (+/−S.D.) PBMC#2",14.8 µM
CCN(CC)S(=O)(=O)c1ccc(NC(=O)c2ccc3nc4c(c(Cl)c3c2)CCCC4)cc1 [C598-0646],IC50,[2],> 100 µM
